# Experimental data published in patent US20260068882A1, “ARTHROPOD CONTROLLING COMPOSITION” (Firmenich SA, priority 2019, published 2026).
# What was measured:
# Aedes aegypti [1] = test: In vivo arm in cage test on forearm of human volunteers; conditions: 20% in ethanol on forearm; 0.05 h post application; three volunteers
# Aedes aegypti [2] = test: In vivo K&D assay on treated skin of human study participants
# Source text: For the K&D in vivo test [Klun J A, Debboun M. A new module for quantitative evaluation of controlling efficacy using human subjects. J Med Entomol. 2000; 37:177-81.], 3 study participants, 2 females and 1 male, showing low or no skin reactions against mosquito bites were recruited at the Swiss Tropical and Public Health Institute (Swiss TPH). […] The study was approved by the Ethics Commission of Northwest and Central Switzerland (Study no. PB_2017-00436-220/11) and all study participants signed an informed consent form. To avoid unwanted bias the participants were asked to avoid alcohol and products such as perfume, eau de cologne and lotions for at least 12 hours before and during the experiments. During the experiments the participants were also asked to avoid rubbing, touching or wetting the arthropod controlling compound-treated area as well as any activity that might lead to increased perspiration.
# In the in vivo assay, a template was used to delineate 4 cm×5 cm areas on the skin that correspond to each of the six cell openings (3 cm×4 cm) on the bottom of the K&D module. Five areas were treated with the different tested stimuli. The module, with five host-seeking, 5- to 10-day-old mosquitoes in each cell, was then positioned over the treated skin area. The number of mosquitoes blood feeding within a 2-minute exposure was recorded. This procedure was repeated until six replicate exposures and observations (i.e. 30 mosquitoes) were made for the three study participants.
# Aedes aegypti [3] = test: In vivo arm in cage test on forearm of human volunteers; conditions: for % of repellency MEAN: 20% in ethanol on forearm, three volunteers
# Protocol: The Arm in the box method was adapted from the WHO Guidelines for efficacy testing of mosquito repellents for human skin (WHO/CDS/NTD/WHOPES/2009.4). The readiness of 100 hungry female mosquitoes A. aegypti to probe is assessed by inserting an untreated arm into the cage (40×40×40 cm) for 30 seconds (negative control) three times (once at the beginning, once at the fourth hour and once at the eighth hour), to determine probing activity.
# Then, the product is applied onto the skin of the forearm of a human volunteer (1 ml per 600 cm^2) and after 5 minutes, this arm is inserted into the cage and exposed for 3 minutes. The assay take place in temperature (27±2° C.) and humidity (80±10% RH) regulated room on three different volunteers.
# Aedes aegypti [4] = test: In vitro Warm Body assay, mosquitoes landing on treated warm body; assay type: in vivo; conditions: for % of mosquitoes' repellency: normalised to landing with 100% ethanol
# Summary of the method: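 Adapted Warm Body assay with host-seeking, non-blood-fed, sugar-fed A. aegypti Rockefeller females aged 5–10 days (10–12 days in one set); cages held 30 (or 25) females at 150 lux. Landings were counted automatically. Doses in ethanol were 0.0016%, 0.04% and 1% in triplicate, or a single replicate across 0.0016–1%.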
# [5] = Aedes aegypti, read-out: decrease of landings
smiles,measurement,setting,value
"Cc1ccc2c(c1)CC(C)(CO)C2 (stereo not shown) [ingredient #2, (2,5-dimethyl-2,3-dihydro-1H-inden-2yl)methanol]",% of repellency MEAN,Aedes aegypti [1],99.1%
same,% repulsion,Aedes aegypti [2]; 0.02% in ethanol on human skin,23.3%
same,% repulsion,Aedes aegypti [2]; 0.1% in ethanol on human skin,27.8%
same,% repulsion,Aedes aegypti [2]; 0.5% in ethanol on human skin,54.4%
same,% repulsion,Aedes aegypti [2]; 2.5% in ethanol on human skin,82.2%
same,% repulsion,Aedes aegypti [2]; 10% in ethanol on human skin,93.3%
same,concentration from which a significant repellent effect is shown,"Aedes aegypti [2]; on its own, in ethanol",≥ 0.5%
same,% of repellency MEAN,Aedes aegypti [3]; 1 h post application,98.83%
same,% of repellency MEAN,Aedes aegypti [3]; 2 h post application,97.79%
same,% of repellency MEAN,Aedes aegypti [3]; 3 h post application,96.72%
same,% of repellency MEAN,Aedes aegypti [3]; 4 h post application,94.71%
same,% of repellency MEAN,Aedes aegypti [3]; 5 h post application,94.05%
same,% of repellency MEAN,Aedes aegypti [3]; 6 h post application,91.99%
same,% of repellency MEAN,Aedes aegypti [3]; 7 h post application,90.91%
same,% of repellency MEAN,Aedes aegypti [3]; 8 h post application,84.67%
same,reduction of the number of mosquitoes landing on the volunteers' arm,"Aedes aegypti [3]; 20% in ethanol, for up to 7 h",more than 90%
same,% of mosquitoes' repellency,Aedes aegypti [4]; 0.00032% concentration,18%
same,% of mosquitoes' repellency,Aedes aegypti [4]; 0.00071% concentration,46%
same,% of mosquitoes' repellency,Aedes aegypti [4]; 0.0016% concentration,14%
same,number of mosquitoes landed on the Warm Body,"Aedes aegypti [4]; 0.0016% in ethanol (Table 7, one replicate)",68
same,% of mosquitoes' repellency,Aedes aegypti [4]; 0.0036% concentration,46%
same,% of mosquitoes' repellency,Aedes aegypti [4]; 0.0053% concentration,0%
same,% of mosquitoes' repellency,Aedes aegypti [4]; 0.0080% concentration,26%
same,number of mosquitoes landed on the Warm Body,"Aedes aegypti [4]; 0.008% in ethanol (Table 7, one replicate)",61
same,% of mosquitoes' repellency,Aedes aegypti [4]; 0.018% concentration,26%
same,% of mosquitoes' repellency,Aedes aegypti [4]; 0.040% concentration,61%
same,number of mosquitoes landed on the Warm Body,"Aedes aegypti [4]; 0.04% in ethanol (Table 7, one replicate)",22
same,% of mosquitoes' repellency,Aedes aegypti [4]; 0.089% concentration,60%
same,% of mosquitoes' repellency,Aedes aegypti [4]; 0.20% concentration,80%
same,number of mosquitoes landed on the Warm Body,"Aedes aegypti [4]; 0.2% in ethanol (Table 7, one replicate)",9
same,number of mosquitoes landed on the Warm Body,"Aedes aegypti [4]; 0.447% in ethanol (Table 7, one replicate)",3
same,% of mosquitoes' repellency,Aedes aegypti [4]; 0.45% concentration,93%
same,% of mosquitoes' repellency,Aedes aegypti [4]; 1% concentration,91%
same,number of mosquitoes landed on the Warm Body,"Aedes aegypti [4]; 1% in ethanol (Table 7, one replicate)",8
same,pest or weed control at 0.0016 %,Aedes aegypti [4]; [5],4 to 29%
same,pest or weed control at 0.04 %,Aedes aegypti [4]; [5],~70%
same,repulsion (in words),Aedes aegypti [4]; concentrations lower than 0.04%,only low repulsion
